According to patent US4968819A, “Process for the preparation of chromene derivatives” (Alkaloida Vegyeszeti Gyar, priority 1983, dated 1990):
“Also recorded” adds a separate entry of the source. Like-named read-outs stand apart in the source and are kept apart here. One block for each compound: values may come before it.

Columns and labels:
[1] = pK by spectrophotometrical measurement; assay type: physicochemical; settings: for pK7 (2.): 7-OH; for pKX (2.): second OH, X = 5, 6 or 8
From the text: (§1) This difference can be strengthened by deliberate direction of the reaction conditions to such an extent that selective mono-O-substitution can be carried out with excellent yields. It has been confirmed by various measurements and calculations (PMR, CMR, UV-VLS spectrophotometrical and potentiometric acid-base titrations, pK determinations, "all valence" CNDO quantumchemical calculations. electrostatical potential map calculation) that the hydroxy group in position 7 is the most reactive while the hydroxy groups in positions 5, 6 and 8, respectively, are less reactive.
(2.) according to spectrophotometrical measurement).

[2] = pK by potentiometrical titration; assay type: physicochemical; settings: 7-OH
From the text: as §1
(1.) is determined by potentiometrical titration and […]

[3] = tested on: tomato root gall nematode (Meloidogyne incognita); assay: Tomato root gall nematode test (II. stage infective larvae, treated NGM agar plate); assay type: in vivo; settings: 72 hours; for mortality at 200 µg/mL / mortality at 400 µg/mL: Meloidogyne incognita
Experimental: (6) Root gall nematode The test is carried out on II. stage infective larvae, which are collected from the root of tomato plant, placed on a filter and incubated in sterile water at 25° C. The hatched larvae are collected every 24 hours and immediately placed onto the treated nutrient medium. As nutrient medium NGM agar plate free from bacterial is used. 0.5 ml of the acetoneous solution of the test compound is applied onto the surface of the plate in a Petri-dish. After the acetone has evaporated 5 μl of the larva suspension is applied onto each plate. After 72 hours the surviving and killed insects are counted.

Caenorhabditis elegans = Caenorhabditis elegans test (treated NGM agar plate, young adults); assay type: in vivo
Experimental: (5) Caenorhabditis elegans 0.5 ml of the acetonous solution of the test compound is applied onto a NGM agar plate free from bacteria in a Petri dish. After the acetone has dried 25-30 young adults are placed on the plate. After 24 hours the surviving and killed insects are counted.

[4] = tested on: cotton bug (Dysdercus fasciatus); assay: Cotton bug test (topical application on II. stage larvae); assay type: in vivo; settings: for AJH effect: adultoid symptoms
Experimental: (1) Cotton bug test A dilution series is prepared from the test compound with acetone and 0.2 μl of each dilution is topically applied onto the back part of larvae of the II. stage of growth with the aid of a Hamiltion syringe. The active ingredient is absorbed through the cuticula. The animals are kept in a large glass and fed with cotton grains and water. After adult shedding the surviving insects are observed for eventual adultoid symptoms, the egg-reproduction and the development of the ovules is evaluated too. (Remark: in the cotton bug test 50 insects are used).

insects = settings: compared with P2; listed as P3; cited from earlier work
[5] = tested on: cabbage butterfly (Pieris brassicae); assay: Cabbage butterfly test (sprayed cabbage seedlings); assay type: in vivo; settings: Pieris brassicae; 50 EC, 0.1%; read-out: Killing rate of larvae
Experimental: From the 50 EC of the test compound a diluted series is prepared with water and the host seedlings (cabbage) are sprayed with this composition until the spray runs down. The spray is allowed to dry whereupon 20 young larvae of the II. stage are placed on each treated plant and the seedlings are kept under so-called "long-day" illumination (18 hours of illumination and 6 hours of darkness). The nibbled plants are replaced by similarly sprayed plants if necessary. The killing rate of the insects, the growth rate of the larvae and the morphological deformations of the surviving nymphs and adults are registered.
In the 50 EC compositions the concentration of compounds 23 and 25 amounts to 0.01% and that of the other compounds to 0.1%.

mustard beetle = assay: Mustard beetle test (sprayed mustard seedlings); assay type: in vivo; settings: concentration 1%
Experimental: Two weeks' old mustard seedlings are sprayed with a solution of 0.1 g of the test compound, 0.5 ml of dimethyl sulfoxide, and 10 μl of 50 EC composition in 10 ml of water. After the spray is dried, 20 mustard larvae of the II. stage are placed on each plant. The sprayed plants are charged every second day. The evaluation is based on the number of the imagos hatching from the nymphs.

[6] = tested on: domestic fly (Musca domestica); assay: Domestic fly test (larvae in treated nutrient medium); assay type: in vivo; settings: 0.1% related to milk, 0.05% related to total nutrient medium
Experimental: The fly larvae are grown on a nutrient medium of the following composition: 2 ml of milk; 2 ml of water; 2 g of wheat bran; 0.1 ml of saturated alcoholic nipagin solution.
The nutrient medium is filled into cylindrical glass vials (30×100 mm) and 25 fly larvae are raised in each vial. The test compound is dissolved in milk; the end concentration (related to milk) amounts to 0.1% which corresponds to 0.05% (related to the total nutrient medium). The solution of the active ingredient is admixed with the nutrient medium whereupon […] of domestic fly larvae of the I. stage are placed into each vial and the vials are closed with a hard cotton-wool stopper. The nymphs emerging from the larvae are collected in each vial, counted and kept in a Petri dish (diameter 25 mm) until flies hatch from the nymphs. The hatched flies are counted.

[7] = 200 μg/ml, first test, read-out: mortality 1.
[8] = 200 μg/ml, second test, read-out: mortality 2.
[9] = 200 μg/ml, read-out: mortality Average
[10] = 400 μg/ml, first test, read-out: mortality 1.
[11] = 400 μg/ml, second test, read-out: mortality 2.
[12] = 400 μg/ml, read-out: mortality Average

pK7 (2.) [1]: 7.0 | pKX (2.) [1]: 11.6 | pK7 (1.) [2]: 7.4
Structure (SMILES): CC1(C)CC(=O)c2c(O)cc(O)cc2O1 [5-OH 7-OH 4-OH, 5,7-dihydroxy-2,2-dimethyl-4-chromanone]

pK7 (2.) [1]: 6.9 | pKX (2.) [1]: 11.4 | pK7 (1.) [2]: 6.8
Structure (SMILES): CC1(C)CC(=O)c2cc(O)c(O)cc2O1 [6-OH 7-OH 4-H, 6,7-dihydroxy-2,2-dimethyl-4-chromanone]

pK7 (2.) [1]: 7.2 | pKX (2.) [1]: 11.6 | pK7 (1.) [2]: 7.2
Structure (SMILES): CC1(C)CC(=O)c2ccc(O)c(O)c2O1 [8-OH 7-OH 4-H, 7,8-dihydroxy-2,2-dimethyl-4-chromanone]

Structure (SMILES): COc1cc2c(cc1OC)OC(C)(C)C=C2 [Compound 1, 6,7-dimethoxy-2,2-dimethyl-2H-chromene, reference compound]
Nematocidal effect ([3]; 200 μg/ml): strong | Nematocidal effect ([3]; 400 μg/ml): strong | mortality at 200 µg/mL [3, 7]: 76% | mortality at 200 µg/mL [3, 8]: 76% | mortality at 200 µg/mL [3, 9]: 76% | mortality at 400 µg/mL [3, 10]: 98% | mortality at 400 µg/mL [3, 11]: 95% | mortality at 400 µg/mL [3, 12]: 97% | Size of descendant population (Caenorhabditis elegans; 200 μg/ml): no descendants | Size of descendant population (Caenorhabditis elegans; 400 μg/ml): no descendants | LD50 [4]: 0.6 μg/insect | Sterilizing effect [4]: 10 μg/insect | AJH effect [4]: 1 μg/insect

Structure (SMILES): CCOc1cc2c(cc1OC)C=CC(C)(C)O2 [Compound 3, 6-methoxy-7-ethoxy-2,2-dimethyl-2H-chromene, reference compound]
Nematocidal effect ([3]; 400 μg/ml): strong | mortality at 200 µg/mL [3, 7]: 24% | mortality at 200 µg/mL [3, 8]: 20% | mortality at 200 µg/mL [3, 9]: 22% | mortality at 400 µg/mL [3, 10]: 100% | mortality at 400 µg/mL [3, 11]: 95% | mortality at 400 µg/mL [3, 12]: 97% | Size of descendant population (Caenorhabditis elegans; 200 μg/ml): some descendants | Size of descendant population (Caenorhabditis elegans; 400 μg/ml): no descendants | effectiveness/activity relative to P2 (insects): ten times more active; also recorded: ten times more effective | LD50 [4]: 0.5 μg/insect | Sterilizing effect [4]: 10 μg/insect | AJH effect [4]: 10 μg/insect

Structure (SMILES): Cc1cc(OCC(C)C)cc2c1C=CC(C)(C)O2 [Compound 42]
pest or weed control at 0.1 % [5]: 100% | Survival, adults (mustard beetle): 27% | Survival adult [6]: 25.5% | Survival nymph [6]: 45.4%

Structure (SMILES): CCCOc1ccc2c(c1OC)OC(C)(C)C=C2 [Compound 51]
pest or weed control at 0.1 % [5]: 100% | Survival, adults (mustard beetle): 45% | Survival adult [6]: 0% | Survival nymph [6]: 12%
